Test results taken from article PMC6726392 (ACS chemical neuroscience, 2019).

Legend:
[1] = target: delta opioid receptor (DOR); rat DOR (Rattus norvegicus, UniProt P33533); test: [3H]diprenorphine competitive displacement, membranes; assay type: binding
[2] = target: T1, kappa opioid receptor (KOR); human KOR (Homo sapiens, UniProt P41145); test: as above; assay type: binding
[3] = target: mu opioid receptor (MOR); rat MOR (Rattus norvegicus, UniProt P33535); test: as above; assay type: binding
[4] = target: T1, kappa opioid receptor (KOR); human KOR; test: […]GTPγS binding stimulation, membranes; assay type: biochemical

SMILES	Ki [1] [nM]	Ki [2] [nM]	Ki [3] [nM]	EC50 [4] [nM]
Cc1cc(O)cc(C)c1C[C@H](N)C(=O)N1CCc2c(Cc3ccccc3)cccc2C1 [4a, 5-Bn Dmt-Tiq analogue 4a]	3.3	112	17	–
Cc1cc(O)cc(C)c1C[C@H](N)C(=O)N1CCc2cc(Cc3ccccc3)ccc2C1 [4b, 6-Bn Dmt-Tiq analogue 4b]	4.3	38	9.9	–
Cc1cc(O)cc(C)c1C[C@H](N)C(=O)N1CCc2ccc(Cc3ccccc3)cc2C1 [4c, 7-Bn Dmt-Tiq analogue 4c]	6.1	3.9	2.7	33
Cc1cc(O)cc(C)c1C[C@H](N)C(=O)N1CCc2cccc(Cc3ccccc3)c2C1 [4d, 8-Bn Dmt-Tiq analogue 4d]	185	26	4.1	319
